Target: T1, Human MTHFD2 (Homo sapiens, UniProt P13995)
T1 construct: residues 36-350 in Uniport ID P13995; His6 (N); made in house; host or cells: E. coli
T1 sequence (P13995 36-350): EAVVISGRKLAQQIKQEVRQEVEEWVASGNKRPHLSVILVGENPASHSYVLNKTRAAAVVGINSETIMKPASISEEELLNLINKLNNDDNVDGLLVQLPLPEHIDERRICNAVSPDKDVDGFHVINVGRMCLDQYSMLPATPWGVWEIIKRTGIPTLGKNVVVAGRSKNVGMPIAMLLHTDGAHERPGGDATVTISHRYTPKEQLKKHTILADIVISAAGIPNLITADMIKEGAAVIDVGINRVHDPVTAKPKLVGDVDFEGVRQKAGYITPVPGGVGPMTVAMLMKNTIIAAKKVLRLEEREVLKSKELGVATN
Assay: MTHFD2 Activity Assay (dehydrogenase activity, diaphorase/resazurin coupled fluorescence)
Assay type: biochemical
Conditions: inhibitory activity (IC50 and/or binding constant); 0.2 nM MTHFD2, 11 concentrations
Outline: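 Steps: compound + 0.2 nM enzyme, 15 min, pH 8.0 Hepes buffer; add 70 μM CH2-THF, 1 mM NAD+, 100 μM resazurin, diaphorase; 30 min; quench with EDTA; read fluorescence. Data normalized to DMSO (100%) and no-enzyme (0%) wells.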

Row | Compound | IC50 [nM]
1 | Cn1cnc2c1c(=O)n(Cc1cc3ccccc3n1C)c(=O)n2C [Example 235, 3,7-dimethyl-1-((1-methyl-1H-indol-2-yl)methyl)-1H-purine-2,6(3H,7H)-dione] | 1000 to 5000
2 | CCOC(=O)Cc1nc2c(c(=O)n(Cc3ccc(Cl)c(Cl)c3)c(=O)n2C)n1C [Example 162, ethyl 2-(1-(3,4-dichlorobenzyl)-3,7-dimethyl-2,6-dioxo-2,3,6,7-tetrahydro-1H-purin-8-yl)acetate] | 5000 to 10000
3 | Cn1c(N[C@H]2CC[C@@H](O)C2)nc2c1c(=O)n(Cc1ccc(Cl)c(Cl)c1)c(=O)n2C (single isomer, unassigned) [Example 43, 1-(3,4-dichlorobenzyl)-8-((1S,3R)-3-hydroxycyclopentylamino)-3,7-dimethyl-1H-purine-2,6(3H,7H)-dione or 1-(3,4-dichlorobenzyl)-8-((1R,3S)-3-hydroxycyclopentylamino)-3,7-dimethyl-1H-purine-2,6(3H,7H)-dione] | 10 to 1000
4 | Cn1c(Nc2ccnc([C@@H]3C[C@H]3C(=O)O)c2)nc2c1c(=O)n(Cc1ccc(Cl)c(Cl)c1)c(=O)n2C (single isomer, unassigned) [Example 300, (1R,2R)-2-(4-((1-(3,4-dichlorobenzyl)-3,7-dimethyl-2,6-dioxo-2,3,6,7-tetrahydro-1H-purin-8-yl)amino)pyridin-2-yl)cyclopropanecarboxylic acid or (1S,2S)-2-(4-((1-(3,4-dichlorobenzyl)-3,7-dimethyl-2,6-dioxo-2,3,6,7-tetrahydro-1H-purin-8-yl)amino)pyridin-2-yl)cyclopropanecarboxylic acid] | 10 to 1000
5 | Cn1c(Nc2ccncc2)nc2c1c(=O)n(Cc1cc3c(C4CC4)cccc3[nH]1)c(=O)n2C [Example 401, 1-((4-cyclopropyl-1H-indol-2-yl)methyl)-3,7-dimethyl-8-(pyridin-4-ylamino)-1H-purine-2,6(3H,7H)-dione] | 10 to 1000
6 | Cn1c(N[C@H]2CCC(=O)NC2)nc2c1c(=O)n(Cc1ccc(Cl)c(Cl)c1)c(=O)n2C (single isomer, unassigned) [Example 83, (5)-1-(3,4-dichlorobenzyl)-3,7-dimethyl-8-(6-oxopiperidin-3-ylamino)-1H-purine-2,6(3H,7H)-dione or (R)-1-(3,4-dichlorobenzyl)-3,7-dimethyl-8-(6-oxopiperidin-3-ylamino)-1H-purine-2,6(3H,7H)-dione] | 10 to 1000
7 | Cn1c(NC2(CO)CCCC2)nc2c1c(=O)n(Cc1ccc(Cl)c(Cl)c1)c(=O)n2C [Example 124, 1-(3,4-dichlorobenzyl)-8-(1-(hydroxymethyl)cyclopentylamino)-3,7-dimethyl-1H-purine-2,6(3H,7H)-dione] | 10 to 1000
8 | Cn1c(Nc2ccncc2)nc2c1c(=O)n(Cc1cc3c(Br)cccc3[nH]1)c(=O)n2C [Example 348, 1-((4-bromo-1H-indol-2-yl)methyl)-3,7-dimethyl-8-(pyridin-4-ylamino)-1H-purine-2, 6(3H,7H)-dione] | 5000 to 10000
9 | Cn1c(NCCOCCO)nc2c1c(=O)n(Cc1ccc(Cl)c(Cl)c1)c(=O)n2C [Example 54, 1-[(3,4-dichlorophenyl)methyl]-8-{[2-(2-hydroxyethoxy)ethyl]amino}-3,7-dimethyl-2,3,6,7-tetrahydro-1H-purine-2,6-dione] | 10 to 1000
10 | Cn1c(NC[C@@H](O)CO)nc2c1c(=O)n(Cc1ccc(Cl)cc1)c(=O)n2C [Example 15, 1-[(4-chlorophenyl)methyl]-8-{[(2R)-2,3-dihydroxypropyl]amino}-3,7-dimethyl-2,3,6,7-tetrahydro-1H-purine-2,6-dione] | 5000 to 10000
11 | Cn1c(Nc2cccnc2)nc2c1c(=O)n(Cc1cc3c(Cl)cccc3[nH]1)c(=O)n2C [Example 343, 1-((4-chloro-1H-indol-2-yl)methyl)-3,7-dimethyl-8-(pyridin-3-ylamino)-1H-purine-2,6(3H,7H)-dione] | 10 to 1000
12 | Cn1c(NC2COC2)nc2c1c(=O)n(Cc1ccc(Cl)c(Cl)c1)c(=O)n2C [Example 245, 1-(3,4-dichlorobenzyl)-3,7-dimethyl-8-(oxetan-3-ylamino)-1H-purine-2,6(3H,7H)-dione] | 10 to 1000
13 | Cn1c(NC2CCCC(N)C2)nc2c1c(=O)n(Cc1ccc(Cl)c(Cl)c1)c(=O)n2C (centres unmarked) [Example 85, 8-((3-aminocyclohexyl)amino)-1-(3,4-dichlorobenzyl)-3,7-dimethyl-3,7-dihydro-1H-purine-2,6-dione] | 1000 to 5000
14 | Cn1c(N2CCC(O)CC2)nc2c1c(=O)n(Cc1cc3ccccc3[nH]1)c(=O)n2C [Example 191, 1-((1H-indol-2-yl)methyl)-8-(4-hydroxypiperidin-1-yl)-3,7-dimethyl-1H-purine-2,6(3H,7H)-dione] | 10 to 1000
15 | Cn1c(C(N)C(CO)CO)nc2c1c(=O)n(Cc1cc3c(Cl)cccc3[nH]1)c(=O)n2C (centres unmarked) [Example 465, 8-[1-amino-3-hydroxy-2-(hydroxymethyl)propyl]-1-[(4-chloro-1H-indol-2-yl)methyl]-3,7-dimethyl-purine-2,6-dione] | 10 to 1000
16 | Cc1cccc2[nH]c(Cn3c(=O)c4c(nc(Nc5ccncc5)n4C)n(C)c3=O)cc12 [Example 328, 1-((4-methyl-1H-indol-2-yl)methyl)-3,7-dimethyl-8-(pyridin-4-ylamino)-1H-purine-2,6(3H,7H)-dione] | 10 to 1000
17 | Cn1c(CN)nc2c1c(=O)n(Cc1cc3c(Cl)cccc3[nH]1)c(=O)n2C [Example 358, 8-(aminomethyl)-1-[(4-chloro-1H-indol-2-yl)methyl]-3,7-dimethyl-purine-2,6-dione] | 10 to 1000
18 | Cn1c(N[C@H]2CCC[C@H](O)C2)nc2c1c(=O)n(Cc1ccc(Cl)c(Cl)c1)c(=O)n2C (single isomer, unassigned) [Example 81, 1-(3,4-dichlorobenzyl)-8-((1S,3S)-3-hydroxycyclohexylamino)-3,7-dimethyl-1H-purine-2,6(3H,7H)-dione or 1-(3,4-dichlorobenzyl)-8-((1R,3R)-3-hydroxycyclohexylamino)-3,7-dimethyl-1H-purine-2,6(3H,7H)-dione] | 10 to 1000
19 | Cn1c(Nc2ccncc2)nc2c1c(=O)n(Cc1cc3c(F)cccc3[nH]1)c(=O)n2C [Example 310, 1-((4-fluoro-1H-indol-2-yl)methyl)-3,7-dimethyl-8-(pyridin-4-ylamino)-1H-purine-2,6(3H,7H)-dione] | 10 to 1000
20 | Cn1c(NC2(CO)CCCC2)nc2c1c(=O)n(Cc1ccc(C(F)(F)F)cc1)c(=O)n2C [Example 128, 8-(1-(hydroxymethyl)cyclopentylamino)-3,7-dimethyl-1-(4-(trifluoromethyl)benzyl)-1H-purine-2,6(3H,7H)-dione] | > 10000
21 | Cn1c(NCc2cnccn2)nc2c1c(=O)n(Cc1ccc(Cl)c(Cl)c1)c(=O)n2C [Example 116, 1-(3,4-dichlorobenzyl)-3,7-dimethyl-8-(pyrazin-2-ylmethylamino)-1H-purine-2,6(3H,7H)-dione] | 1000 to 5000
22 | Cn1c(Nc2ccncc2)nc2c1c(=O)n(Cc1cc3cc(Cl)ccc3[nH]1)c(=O)n2C [Example 176, 1-((5-chloro-1H-indol-2-yl)methyl)-3,7-dimethyl-8-(pyridin-4-ylamino)-1H-purine-2,6(3H,7H)-dione] | 10 to 1000
23 | Cn1c(NC(CO)CO)nc2c1c(=O)n(Cc1ccc(Cl)c(Cl)c1)c(=O)n2C [Example 53, 1-[(3,4-dichlorophenyl)methyl]-8-[(1,3-dihydroxypropan-2-yl)amino]-3,7-dimethyl-2,3,6,7-tetrahydro-1H-purine-2,6-dione] | 10 to 1000
24 | Cn1c(N[C@H]2CCCC[C@@H]2O)nc2c1c(=O)n(Cc1ccc(Cl)c(Cl)c1)c(=O)n2C (racemic) [Example 91, (±)-1-[(3,4-dichlorophenyl)methyl]-8-{[(trans)-2-hydroxycyclohexyl]amino}-3,7-dimethyl-2,3,6,7-tetrahydro-1H-purine-2,6-dione±] | 10 to 1000
25 | CN(C)C(=O)CCc1nccc(Nc2nc3c(c(=O)n(Cc4cc5c(Cl)cccc5[nH]4)c(=O)n3C)n2C)n1 [Example 405, 3-(4-(1-((4-chloro-1H-indol-2-yl)methyl)-3,7-dimethyl-2,6-dioxo-2,3,6,7-tetrahydro-1H-purin-8-ylamino)pyrimidin-2-yl)-N,N-dimethylpropanamide] | 10 to 1000
26 | Cc1ccc2c(c1)cc(Cn1c(=O)c3c(ncn3C)n(C)c1=O)n2C [Example 233, 1-((1,5-dimethyl-1H-indol-2-yl)methyl)-3,7-dimethyl-1H-purine-2,6(3H,7H)-dione] | 5000 to 10000
27 | Cn1c(Nc2nccc(O)n2)nc2c1c(=O)n(Cc1ccc(Cl)c(Cl)c1)c(=O)n2C [Example 138, 1-(3,4-dichlorobenzyl)-8-(4-hydroxypyrimidin-2-ylamino)-3,7-dimethyl-1H-purine-2,6(3H,7H)-dione] | 10 to 1000
28 | CN(C(=O)CCc1nccc(Nc2nc3c(c(=O)n(Cc4cc5c(Cl)cccc5[nH]4)c(=O)n3C)n2C)n1)C1CC1 [Example 414, 3-(4-(1-((4-chloro-1H-indol-2-yl)methyl)-3,7-dimethyl-2,6-dioxo-2,3,6,7-tetrahydro-1H-purin-8-ylamino)pyrimidin-2-yl)-N-cyclopropyl-N-methylpropanamide] | 10 to 1000
29 | Cc1cc(Nc2nc3c(c(=O)n(Cc4cc5c(Cl)cccc5[nH]4)c(=O)n3C)n2C)nc(CCC(N)=O)n1 [Example 475, 3-(4-(1-((4-chloro-1H-indol-2-yl)methyl)-3,7-dimethyl-2,6-dioxo-2,3,6,7-tetrahydro-1H-purin-8-ylamino)-6-methylpyrimidin-2-yl)propanamide] | 10 to 1000

Source: patent publication US12187728B2 (Raze Therapeutics, Inc., priority 2015, dated 2025)
